How the values were obtained:
PXR Human (NR1I2) = target: T1, PXR Human (NR1I2) (Homo sapiens, UniProt O75469); assay: NCGC_PXR_Agonist_human: GAL4 BLAM Reporter gene assay: PXR Human; format: cell-based; conditions: agonist mode; scale not given, looks like -log10 of molar active concentration; 0 = no activity
T1 sequence (O75469 146-434 limits assumed): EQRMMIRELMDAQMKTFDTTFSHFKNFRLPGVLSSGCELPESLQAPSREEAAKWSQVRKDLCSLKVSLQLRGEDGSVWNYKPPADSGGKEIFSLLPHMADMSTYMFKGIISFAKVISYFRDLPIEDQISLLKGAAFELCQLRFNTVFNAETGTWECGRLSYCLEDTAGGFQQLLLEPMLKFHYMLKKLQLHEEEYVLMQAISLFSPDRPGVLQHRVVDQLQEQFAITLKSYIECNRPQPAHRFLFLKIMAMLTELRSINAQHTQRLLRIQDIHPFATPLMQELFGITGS
Outline: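 Tox21 cell-based screens at NCGC using GAL4-fused receptor beta-lactamase reporters. Responses active only at the top concentration (above 50%) were discarded, and fits needed R^2 of at least 0.5.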

LXRa (NR1H2) = assay: NCGC_LXR_Agonist: GAL4 BLAM Reporter gene assay: LXRa; format: cell-based, human; conditions: agonist mode; scale not given, looks like -log10 of molar active concentration; 0 = no activity
Method: These assays measure binding constants and enzyme inhibition values for nuclear receptors. The targets include [drawing 67] , [drawing 68] , [drawing 69] , [drawing 70] , [drawing 71] , [drawing 72] , [drawing 73] , [drawing 74] , [drawing 75] and [drawing 76] . Each of the nuclear receptor targets was measured in agonist mode. Assays were run at the NIH Chemical Genomics Center (Rockville, MD).
Cell-based HTS Assays: These assays measuring binding constants and enzyme inhibition values for nuclear receptors. The targets include AR, ER, FXR, LXR, PPARα, PPARδ, PPARγ, RXRα, RXRβ and PXR. Each of the nuclear receptor targets was measured in both agonist and antagonist mode, but the antagonist data is still undergoing analysis due to possible interference between cytotoxicity and assay activity, so antagonist mode data were not used in the present analysis. Assays were run at the NIH Chemical Genomics Center (Rockville, MD) as part of the Tox21 collaboration. […] The R^2 was required to be ≥0.5. Values where only the highest concentration exceeded 50% activity were excluded to eliminate weak or false positives. Detailed description of the methods, data and analysis methods for this dataset will be presented in a separate publication.

AR (androgen receptor) = assay: NVS_NR_hAR: Human AR 3H-Methyltrienolone (cell-free HTS); format: binding; conditions: scale not given, looks like -log10 of molar active concentration, 0 = no activity
Outline: (§1)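 Cell-free biochemical binding assays; chemicals first screened at a single concentration of 25 […] M in duplicate wells. Signals normalised to same-plate solvent controls as percent of neutral control, and AC50 values came from Hill-equation fits of concentration-response curves.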

CYP1A2 = assay: CLZD_CYP1A2: Change in expression of CYP1A2 (primary human hepatocytes); format: cell-based; conditions: 24 hr, scale not given, looks like -log10 of molar active concentration, 0 = no activity
Outline: (§2)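 Five-point concentration series (0.004-40 µM) applied to primary human hepatocytes; 6/24/48 hr timepoints; transcript quantified by multiplexed nuclease protection.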

CYP3A4 = assay: CLZD_CYP3A4: Change in expression of CYP3A4 (primary human hepatocytes); format: cell-based; conditions: 24 hr, scale not given, looks like -log10 of molar active concentration, 0 = no activity
Outline: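 Cultured primary human hepatocytes treated with chemicals for 6, 24 or 48 hr across five concentrations spanning 0.004-40 µM, then transcript level measured by quantitative nuclease protection in a multiplexed format.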

PXR (NR1I2) = target: T2, PXR (NR1I2) (Homo sapiens, UniProt O75469); assay: NVS_NR_hPXR: Human PXR Fluormone PXR (SXR) green (cell-free HTS); format: binding; conditions: scale not given, looks like -log10 of molar active concentration, 0 = no activity
T2 sequence (O75469 1-434): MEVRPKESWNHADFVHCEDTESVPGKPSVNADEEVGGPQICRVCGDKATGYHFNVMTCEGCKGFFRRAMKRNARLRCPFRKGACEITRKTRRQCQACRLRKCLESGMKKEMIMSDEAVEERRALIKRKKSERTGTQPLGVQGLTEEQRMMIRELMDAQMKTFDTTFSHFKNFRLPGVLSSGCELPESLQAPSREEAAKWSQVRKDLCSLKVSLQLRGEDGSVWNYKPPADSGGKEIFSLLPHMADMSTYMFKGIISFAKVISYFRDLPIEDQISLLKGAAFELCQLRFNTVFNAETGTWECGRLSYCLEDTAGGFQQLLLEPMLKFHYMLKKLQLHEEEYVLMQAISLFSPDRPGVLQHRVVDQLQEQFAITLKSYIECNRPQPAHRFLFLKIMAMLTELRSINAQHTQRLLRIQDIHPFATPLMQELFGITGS
Outline: as §1

ABCB11 = assay: CLZD_ABCB11: Change in expression of ABCB11 (primary human hepatocytes); format: cell-based; conditions: 24 hr, scale not given, looks like -log10 of molar active concentration, 0 = no activity
Outline: as §2

SMILES: O=C(Nc1ccccc1-c1ccc(Cl)cc1)c1cccnc1Cl [r42]
- NCGC_PXR_Agonist_human (PXR Human (NR1I2)): 0
- NCGC_LXR_Agonist (LXRa (NR1H2)): 0
- NVS_NR_hAR (AR (androgen receptor)): 0
- CLZD_CYP1A2_24 (CYP1A2): 4.876
- CLZD_CYP3A4_24 (CYP3A4): 4.98
- NVS_NR_hPXR (PXR (NR1I2)): 0
- CLZD_ABCB11_24 (ABCB11): 0

SMILES: CCC(C)n1c(=O)[nH]c(C)c(Br)c1=O (centres unmarked) [r43]
- NCGC_PXR_Agonist_human (PXR Human (NR1I2)): 0
- NCGC_LXR_Agonist (LXRa (NR1H2)): 0
- NVS_NR_hAR (AR (androgen receptor)): 0
- CLZD_CYP1A2_24 (CYP1A2): 4.966
- CLZD_CYP3A4_24 (CYP3A4): 5.055
- NVS_NR_hPXR (PXR (NR1I2)): 0
- CLZD_ABCB11_24 (ABCB11): 0

SMILES: N#Cc1cc(Br)c(O)c(Br)c1 [r44]
- NCGC_PXR_Agonist_human (PXR Human (NR1I2)): 0
- NCGC_LXR_Agonist (LXRa (NR1H2)): 0
- NVS_NR_hAR (AR (androgen receptor)): 0
- CLZD_CYP1A2_24 (CYP1A2): 0
- CLZD_CYP3A4_24 (CYP3A4): 0
- NVS_NR_hPXR (PXR (NR1I2)): 0
- CLZD_ABCB11_24 (ABCB11): 0

SMILES: CC(C)N1C(=O)N(c2ccccc2)CS/C1=N\C(C)(C)C [r45]
- NCGC_PXR_Agonist_human (PXR Human (NR1I2)): 4.937
- NCGC_LXR_Agonist (LXRa (NR1H2)): 0
- NVS_NR_hAR (AR (androgen receptor)): 0
- CLZD_CYP1A2_24 (CYP1A2): 0
- CLZD_CYP3A4_24 (CYP3A4): 4.966
- NVS_NR_hPXR (PXR (NR1I2)): 5.263
- CLZD_ABCB11_24 (ABCB11): 0

SMILES: CCCCOCN(C(=O)CCl)c1c(CC)cccc1CC [r46]
- NCGC_PXR_Agonist_human (PXR Human (NR1I2)): 5.71
- NCGC_LXR_Agonist (LXRa (NR1H2)): 0
- NVS_NR_hAR (AR (androgen receptor)): 0
- CLZD_CYP1A2_24 (CYP1A2): 0
- CLZD_CYP3A4_24 (CYP3A4): 0
- NVS_NR_hPXR (PXR (NR1I2)): 6.022
- CLZD_ABCB11_24 (ABCB11): 0

SMILES: CCC(C)Nc1c([N+](=O)[O-])cc(C(C)(C)C)cc1[N+](=O)[O-] (centres unmarked) [r48]
- NCGC_PXR_Agonist_human (PXR Human (NR1I2)): 4.442
- NCGC_LXR_Agonist (LXRa (NR1H2)): 0
- NVS_NR_hAR (AR (androgen receptor)): 0
- CLZD_CYP1A2_24 (CYP1A2): 0
- CLZD_CYP3A4_24 (CYP3A4): 5.288
- NVS_NR_hPXR (PXR (NR1I2)): 0
- CLZD_ABCB11_24 (ABCB11): 0

SMILES: CCSC(=O)N(CC(C)C)CC(C)C [r49]
- NCGC_PXR_Agonist_human (PXR Human (NR1I2)): 0
- NCGC_LXR_Agonist (LXRa (NR1H2)): 0
- NVS_NR_hAR (AR (androgen receptor)): 0
- CLZD_CYP1A2_24 (CYP1A2): 0
- CLZD_CYP3A4_24 (CYP3A4): 0
- NVS_NR_hPXR (PXR (NR1I2)): 4.412
- CLZD_ABCB11_24 (ABCB11): 0

SMILES: O=C1C2CC=CCC2C(=O)N1SC(Cl)(Cl)Cl (centres unmarked) [r51]
- NCGC_PXR_Agonist_human (PXR Human (NR1I2)): 0
- NCGC_LXR_Agonist (LXRa (NR1H2)): 0
- NVS_NR_hAR (AR (androgen receptor)): 0
- CLZD_CYP1A2_24 (CYP1A2): 0
- CLZD_CYP3A4_24 (CYP3A4): 0
- NVS_NR_hPXR (PXR (NR1I2)): 5.329
- CLZD_ABCB11_24 (ABCB11): 0

SMILES: CC1=C(C(=O)Nc2ccccc2)SCCO1 [r53]
- NCGC_PXR_Agonist_human (PXR Human (NR1I2)): 0
- NCGC_LXR_Agonist (LXRa (NR1H2)): 0
- NVS_NR_hAR (AR (androgen receptor)): 0
- CLZD_CYP1A2_24 (CYP1A2): 4.782
- CLZD_CYP3A4_24 (CYP3A4): 5.078
- NVS_NR_hPXR (PXR (NR1I2)): 0
- CLZD_ABCB11_24 (ABCB11): 0

SMILES: CCOC(=O)C(Cl)Cc1cc(-n2nc(C)n(C(F)F)c2=O)c(F)cc1Cl (centres unmarked) [r54]
- NCGC_PXR_Agonist_human (PXR Human (NR1I2)): 0
- NCGC_LXR_Agonist (LXRa (NR1H2)): 0
- NVS_NR_hAR (AR (androgen receptor)): 0
- CLZD_CYP1A2_24 (CYP1A2): 0
- CLZD_CYP3A4_24 (CYP3A4): 4.919
- NVS_NR_hPXR (PXR (NR1I2)): 0
- CLZD_ABCB11_24 (ABCB11): 0

SMILES: Nc1cnn(-c2ccccc2)c(=O)c1Cl [r56]
- NCGC_PXR_Agonist_human (PXR Human (NR1I2)): 0
- NCGC_LXR_Agonist (LXRa (NR1H2)): 0
- NVS_NR_hAR (AR (androgen receptor)): 0
- CLZD_CYP1A2_24 (CYP1A2): 4.955
- CLZD_CYP3A4_24 (CYP3A4): 0
- NVS_NR_hPXR (PXR (NR1I2)): 0
- CLZD_ABCB11_24 (ABCB11): 0

SMILES: COc1cc(Cl)c(OC)cc1Cl [r57]
- NCGC_PXR_Agonist_human (PXR Human (NR1I2)): 0
- NCGC_LXR_Agonist (LXRa (NR1H2)): 0
- NVS_NR_hAR (AR (androgen receptor)): 0
- CLZD_CYP1A2_24 (CYP1A2): 0
- CLZD_CYP3A4_24 (CYP3A4): 0
- NVS_NR_hPXR (PXR (NR1I2)): 0
- CLZD_ABCB11_24 (ABCB11): 0

SMILES: N#Cc1c(Cl)c(Cl)c(Cl)c(C#N)c1Cl [r58]
- NCGC_PXR_Agonist_human (PXR Human (NR1I2)): 4.753
- NCGC_LXR_Agonist (LXRa (NR1H2)): 0
- NVS_NR_hAR (AR (androgen receptor)): 0
- CLZD_CYP1A2_24 (CYP1A2): 0
- CLZD_CYP3A4_24 (CYP3A4): 0
- NVS_NR_hPXR (PXR (NR1I2)): 0
- CLZD_ABCB11_24 (ABCB11): 0

SMILES: CC(C)OC(=O)Nc1cccc(Cl)c1 [r59]
- NCGC_PXR_Agonist_human (PXR Human (NR1I2)): 0
- NCGC_LXR_Agonist (LXRa (NR1H2)): 0
- NVS_NR_hAR (AR (androgen receptor)): 4.936
- CLZD_CYP1A2_24 (CYP1A2): 5.159
- CLZD_CYP3A4_24 (CYP3A4): 4.864
- NVS_NR_hPXR (PXR (NR1I2)): 0
- CLZD_ABCB11_24 (ABCB11): 0

SMILES: COc1nc(C)nc(NC(=O)NS(=O)(=O)c2ccccc2Cl)n1 [r62]
- NCGC_PXR_Agonist_human (PXR Human (NR1I2)): 0
- NCGC_LXR_Agonist (LXRa (NR1H2)): 0
- NVS_NR_hAR (AR (androgen receptor)): 0
- CLZD_CYP1A2_24 (CYP1A2): 0
- CLZD_CYP3A4_24 (CYP3A4): 0
- NVS_NR_hPXR (PXR (NR1I2)): 0
- CLZD_ABCB11_24 (ABCB11): 0

SMILES: COc1nc(C)nc(NC(=O)NS(=O)(=O)c2ccccc2Cl)n1 [r63]
- NCGC_PXR_Agonist_human (PXR Human (NR1I2)): 0
- NCGC_LXR_Agonist (LXRa (NR1H2)): 0
- NVS_NR_hAR (AR (androgen receptor)): 0
- CLZD_CYP1A2_24 (CYP1A2): 0
- CLZD_CYP3A4_24 (CYP3A4): 0
- NVS_NR_hPXR (PXR (NR1I2)): 0
- CLZD_ABCB11_24 (ABCB11): 0

SMILES: Cc1ccccc1CO[C@@H]1C[C@@]2(C(C)C)CC[C@]1(C)O2 [r64]
- NCGC_PXR_Agonist_human (PXR Human (NR1I2)): 0
- NCGC_LXR_Agonist (LXRa (NR1H2)): 0
- NVS_NR_hAR (AR (androgen receptor)): 0
- CLZD_CYP1A2_24 (CYP1A2): 5.157
- CLZD_CYP3A4_24 (CYP3A4): 5.116
- NVS_NR_hPXR (PXR (NR1I2)): 0
- CLZD_ABCB11_24 (ABCB11): 0

— publication PMC3038857, “Using Nuclear Receptor Activity to Stratify Hepatocarcinogens” (PLoS ONE, 2011)
